Laboratory results reported in ChEMBL document CHEMBL5113432, “Discovery of novel indole and indoline derivatives against Candida albicans as potent antifungal agents” (Bioorg Med Chem Lett, 2022).
The source made the active and inactive calls. The calls are words filed in the database; no cut-off is given here.

Key:
[1] = system: Candida albicans; experiment: Antifungal activity against fluconazole-resistant Candida albicans ATCC10231FR assessed as inhibition of fungal growth by microdilution method; assay type: functional, organism-based
[2] = system: Candida albicans; experiment: Antifungal activity against fluconazole-sensitive Candida albicans SC5314 assessed as inhibition of fungal growth by microdilution method; assay type: functional, organism-based
[3] = system: Candida albicans; experiment: Antifungal activity against fluconazole-resistant Candida albicans SC5314FR assessed as inhibition of fungal growth by microdilution method; assay type: functional, organism-based
[4] = system: Candida albicans; experiment: Antifungal activity against fluconazole-sensitive Candida albicans ATCC10231 assessed as inhibition of fungal growth by microdilution method; assay type: functional, organism-based
[5] = system: Candida albicans; experiment: Antifungal activity against clinical strain Candida albicans CA4574 assessed as inhibition of fungal growth by microdilution method; assay type: functional, organism-based
[6] = system: Candida albicans; experiment: Antifungal activity against clinical strain Candida albicans CA23 assessed as inhibition of fungal growth by microdilution method; assay type: functional, organism-based
[7] = system: Candida albicans; experiment: Antifungal activity against clinical strain Candida albicans CA187 assessed as inhibition of fungal growth by microdilution method; assay type: functional, organism-based
[8] = system: Candida albicans; experiment: Antifungal activity against clinical strain Candida albicans CA808 assessed as inhibition of fungal growth by microdilution method; assay type: functional, organism-based
[9] = system: Candida albicans; experiment: Antifungal activity against Candida albicans assessed as inhibition of fungal growth at 18 to 72 ug/ml and measured upto 96 hrs by microdilution method; assay type: functional, organism-based; details: dose 18-72 µg/ml, DDE = dose-dependent effect
[10] = system: Candida albicans; experiment: Antifungal activity against Candida albicans assessed as inhibition of biofilm formation at 18 to 72 ug/ml incubated for 24 hrs by crystal violet staining based method; assay type: functional, organism-based; details: dose 18-72 µg/ml
[11] = system: Candida albicans; experiment: Antifungal activity against Candida albicans assessed as inhibition of hyphae formation in Spider medium at 18 to 72 ug/ml and measured upto 8 hrs by scanning electron microscopy; assay type: functional, organism-based; details: dose 18-72 µg/ml, DDE = dose-dependent effect
[12] = system: Candida albicans; experiment: Antifungal activity against Candida albicans assessed as decrease in filamentous hyphae length in Spider medium at 36 to 72 ug/ml by scanning electron microscopy; assay type: functional, organism-based; details: dose 36-72 µg/ml
[13] = system: Candida albicans; experiment: Antifungal activity against Candida albicans assessed as downregulation of RAS1 by RT-PCR analysis; assay type: functional, organism-based
[14] = system: Candida albicans; experiment: Antifungal activity against Candida albicans assessed as downregulation of CYR1 by RT-PCR analysis; assay type: functional, organism-based
[15] = system: Candida albicans; experiment: Antifungal activity against Candida albicans assessed as downregulation of EFG1 by RT-PCR analysis; assay type: functional, organism-based
[16] = system: Candida albicans; experiment: Antifungal activity against Candida albicans assessed as downregulation of ECE1 by RT-PCR analysis; assay type: functional, organism-based
[17] = system: Candida albicans; experiment: Antifungal activity against Candida albicans assessed as downregulation of ALS3 by RT-PCR analysis; assay type: functional, organism-based
[18] = system: Candida albicans; experiment: Antifungal activity against Candida albicans assessed as downregulation of HWP1 by RT-PCR analysis; assay type: functional, organism-based
[19] = Cytotoxicity against human 16HBE14o- assessed as inhibition of cell growth incubated for 24 hrs; assay type: toxicity, cell-based; details: 16HBE14o- cells
[20] = system: Candida albicans; experiment: Antifungal activity against Candida albicans assessed as inhibition of fungal growth at 18 to 72 ug/ml and measured 4 to 96 hrs by microdilution method; assay type: functional, organism-based; details: dose 18-72 µg/ml, time 4-96 hrs, TDE = time-dependent effect
[21] = system: Candida albicans; experiment: Antifungal activity against Candida albicans assessed as inhibition of hyphae formation in Spider medium at 18 to 72 ug/ml and measured for 4 to 8 hrs by scanning electron microscopy; assay type: functional, organism-based; details: dose 18-72 µg/ml, time 4-8 hrs, TDE = time-dependent effect

## COc1ccc(O)c(/C=N/CCNC(=O)CCn2ccc3ccccc32)c1
[1]
  IC50: > 200 µg/mL

## O=C(CCn1ccc2ccccc21)NCCNS(=O)(=O)c1cc([N+](=O)[O-])ccc1O
[1]
  IC50: > 200 µg/mL

## Cc1ccc(S(=O)(=O)NCCNC(=O)CCn2ccc3ccccc32)cc1
[1]
  IC50: > 200 µg/mL

## O=C(CCn1ccc2ccccc21)NCC/N=C/c1ccc(Br)cc1
[1]
  IC50: > 200 µg/mL

## O=C(CCn1ccc2ccccc21)NCCNS(=O)(=O)c1ccc(Br)cc1
[1]
  IC50: > 200 µg/mL

## O=C(CCn1ccc2ccccc21)NCCNS(=O)(=O)c1ccc(F)c(C(F)(F)F)c1
[1]
  IC50: > 200 µg/mL

## O=C(CCn1ccc2ccccc21)NCC/N=C/c1ccc(Cl)c(C(F)(F)F)c1
[1]
  IC50: 24 µg/mL

## CCN(CC)c1ccc(/C=N/CCNC(=O)CCn2ccc3ccccc32)c(O)c1
[1]
  IC50: 21 µg/mL
[2]
  IC50: 22 µg/mL
[3]
  IC50: 75 µg/mL
[4]
  IC50: 19 µg/mL
[5]
  IC50: 74 µg/mL
[6]
  IC50: 20 µg/mL
[7]
  IC50: 39 µg/mL
[8]
  IC50: 78 µg/mL
[9]
  inhibition: Dde
[10]
  inhibition: Active
[11]
  inhibition: Dde
[12]
  Activity: Active
[13]
  Activity: Active
[14]
  Activity: Active
[15]
  Activity: Active
[16]
  Activity: Active
[17]
  Activity: Active
[18]
  Activity: Active
[19]
  CC50 at 24 h: > 200 µg/mL
[20]
  inhibition: Tde
[21]
  inhibition: Tde

## COc1cc(O)c(/C=N/CCNC(=O)CCn2ccc3ccccc32)c(OC)c1
[1]
  IC50: 86 µg/mL

## O=C(CCn1ccc2ccccc21)NCC/N=C/c1ccc(OC(F)(F)F)cc1
[1]
  IC50: 29 µg/mL

## O=C(CCn1ccc2ccccc21)NCCNS(=O)(=O)c1cc(Br)ccc1O
[1]
  IC50: > 200 µg/mL

## O=C(CCn1ccc2ccccc21)NCCNS(=O)(=O)c1ccc(OC(F)(F)F)cc1
[1]
  IC50: > 200 µg/mL

## O=C(CCn1ccc2ccccc21)NCC/N=C/c1cc(Cl)c(F)cc1F
[1]
  IC50: > 200 µg/mL

## O=C(CCn1ccc2ccccc21)NCC/N=C/c1ccc(F)c(C(F)(F)F)c1
[1]
  IC50: > 200 µg/mL

## O=C(CCn1ccc2ccccc21)NCC/N=C/c1ccc(OCc2ccccc2)cc1O
[1]
  IC50: 18 µg/mL

## CCN(CC)c1ccc(S(=O)(=O)NCCNC(=O)CCn2ccc3ccccc32)c(O)c1
[1]
  IC50: > 200 µg/mL

## OC(Cn1cncn1)(Cn1cncn1)c1ccc(F)cc1F [FLUCONAZOLE]
[1]
  IC50: > 200 µg/mL
[2]
  IC50: 1.3 µg/mL
[3]
  IC50: > 200 µg/mL
[4]
  IC50: 10 µg/mL
[5]
  IC50: 1.2 µg/mL
[6]
  IC50: > 200 µg/mL
[7]
  IC50: > 200 µg/mL
[8]
  IC50: > 200 µg/mL

## O=C(CCn1ccc2ccccc21)NCCNS(=O)(=O)c1ccc(OCc2ccccc2)cc1O
[1]
  IC50: > 200 µg/mL

## O=C(CCn1ccc2ccccc21)NCCNS(=O)(=O)c1cc(Cl)cc(Br)c1O
[1]
  IC50: > 200 µg/mL

## O=C(CCn1ccc2ccccc21)NCCNS(=O)(=O)c1cc(Cl)c(F)cc1F
[1]
  IC50: > 200 µg/mL
